Experimental data reported in patent US10295530B2, “Functional assay for cancer recurrence and malignant potential” (THE BRIGHAM AND WOMEN'S HOSPITAL, INC., priority 2012, dated 2019).

Assays:
[1] = test system: HMLER-HR responder cells; assay: HMLER-HR responder cells in depleted medium (D.M.) plus EGF and/or insulin, 4 days: flow cytometry and qPCR; type: cell-based, human; conditions: for CD44 expression / CD44/CD24 expression patterns (flow cytometry) / Oct4 expression (qPCR) / Zeb1 expression (qPCR) / c-Myc expression (qPCR): added to cells kept in D.M. for 4 days, relative to C.M.
From the text: FIG. 23D. Flow cytometric density plots representing CD44/CD24 profiles of responding tumor cells after 4 days in depleted medium, D.M. (medium devoid of EGF and insulin), or D.M.+indicated supplements. Graph represents average responding tumor cell CD441CD24 profiles under indicated conditions relative to that of C.M (samples run in triplicate).
FIG. 23E. Expression levels of indicated malignancy profile genes in responder tumor cells after 4 days in indicated culture conditions relative to those maintained in C.M. Data represent average of three independent experiments, where each sample was run in triplicate.
FIG. 26E. Expression levels of c-myc in HMLER-HR responding tumor cells after 4 days in response to indicated doses of EGF. Data are represented relative to cells that had been maintained in depleted medium (D.M.; medium devoid of EGF and insulin). Data are expressed as mean±SEM; samples tested in triplicate.
HMLER-HR cells were maintained in DMEM-F12 (1:1) medium, supplemented with 5% calf serum, 10 ng/ml human recombinant EGF (Sigma E9644), 10 μg/ml insulin (Sigma 19278), 1 μg/ml hydrocortisone (Sigma 110888) and 1% penicillin-streptomycin. BPLER cells were maintained in WIT Medium (STEMGENT), and MCF7-Ras cells in DMEM media (Thermo Scientific) supplemented with 10% heat inactivated FBS (GIBCO), and 1% penicillin-streptomycin. BT549 cells were maintained in RPMI medium supplemented with 10% FBS.
RNA was extracted from cells or snap-frozen tissues using Trizol reagent following manufacturer's instructions (INVITROGEN). RNA was retrotranscribed with ProtoScript AMV First Strand cDNA Synthesis Kit (New England BioLabs). PCR amplification was performed on a ABI Prism 7900 sequence detector using SYBR-Green (Applied Biosystems). Analysis was done using delta-delta Ct method, normalizing first to GAPDH.
Whether EGFR and IGF1R signaling were necessary and/or sufficient for modulating responding tumor malignancy remained to be investigated. To do so, the effects of either depleting EGF and/or insulin from HMLER-HR responder cells that had been cultured in complete medium (C.M.) or adding EGF and/or insulin to cells that had been cultured in depleted medium (D.M., medium depleted of both EGF and insulin) were examined. For these studies, cells were treated under various conditions for 4 days, then assessed differentiation status by flow cytometry, expression of malignancy factors (e.g. Oct-4, Zeb1, c-myc) by qPCR, and tumor-forming capacity by soft agar colony formation.

[2] = patients treated with erlotinib (Numico et al., 2011); cited from earlier work
[3] = test system: responding tumors (HMLER-HR) opposite instigating LBC; assay: Aspirin treatment in LBC-mediated systemic instigation: responding tumors; type: in vivo, mice; conditions: aspirin 100 mg/kg i.p. once per week
Procedure: (§1) FIG. 35A. Experimental scheme to test effects of aspirin on LBC-mediated systemic instigation. All mice were injected with responders and LBC instigating tumors and treated with either 100 mg/kg aspirin or vehicle control; n=10 (5 mice per cohort for 2 independent experiments).
All experiments were performed in accordance with regulations of the Children's Hospital Boston Institutional Animal Care and Use Committee (protocol 09-12-1566). Unless otherwise indicated, tumor cells were suspended in 20% […] (BD Biosciences) and injected subcutaneously into nonirradiated mice. Tumors were measured on the flanks of live mice using calipers; volume was calculated as 0.5*length*(width^2).
(§2) 450 mg Aspirin (Sigma, A2093-100G) was dissolved in 11 ml DMSO to make a 41 mg/ml concentrated stock solution. 30 min before injection, 1.6 ml of stock solution was diluted in 11.6 ml of PBS to make a 5 mg/ml injection solution.
(§3) Vehicle control was made with 1.6 ml DMSO diluted in 11.6 ml PBS. Mice were injected i.p. with aspirin at 100 mg/kg, once per week. A similar volume:weight ratio of vehicle was administered to control animals.
(§4) In order to explore therapeutic potential and identify whether platelets were necessary for delivering the pro-tumorigenic instigating stimulus in the LBC macroenvironment, we treated mice with aspirin, which inhibits platelet activity (28). Mice were injected with LBC instigators that were permitted to grow for 4 weeks prior to initiation of weekly treatments of either aspirin or vehicle control; responders were then injected into these mice two days following the first aspirin treatment (FIG. 35A). While responding tumors formed in 90% of the mice treated with vehicle control, only 20% of the mice treated with aspirin developed responding tumors (FIG. 35B).

[4] = test system: instigating LBC tumor / host platelets and bone marrow; assay: Aspirin treatment in LBC-mediated systemic instigation: instigating LBC tumor, platelet counts, bone marrow VEGFR2+ cells; type: in vivo, mice; conditions: aspirin 100 mg/kg i.p. once per week vs vehicle
Procedure: as §1
FIG. 35C. Numbers of VEGFR2+ cells in the bone marrow of experimental mice relative to those of cancer-free mice.
as §2, §3
as §4, with “While responding tumors formed in 90% of the mice treated with vehicle control, only 20% of the mice treated with aspirin developed responding tumors (FIG. 35B).” left out

[5] = test system: GFP+ responder cells; assay: Co-culture of GFP+ responder cells with BMCs from aspirin or vehicle treated mice, CD24 by flow cytometry; type: cell-based, human; conditions: BMCs from aspirin treated LBC-bearing mice; same with vehicle
Procedure: FIG. 35D. Flow cytometric analysis of CD24 expression on GFP+ responder cells co-cultured with indicated BMCs.
BMCs were harvested and tested for functional activity as previously described (McAllister et al., 2008). In vitro instigation assays were conducted by co-culturing 1×10^4 GFP-positive responder tumor cells with 1×10^6 BMCs harvested from mice bearing […], TNBC or LBC Instigators. Co-cultured cells were maintained for 4 days in BMDC medium (DMEM, 5% FBS, 5% horse serum, 10^−6 M hydrocortisone), adding fresh medium on day 2.
In order to understand whether BMCs from LBC tumor bearing mice directly mediated tumor cell surface enrichment of CD24, adherent GFP-positive (GFP+) responding tumor cells were cultured with BMCs prepared from various cohorts of mice and analyzed tumor cell expression of CD24 after 4 days by flow cytometry.

| Molecule | CD44 expression / CD44/CD24 expression patterns (flow cytometry) [1] | Oct4 expression (qPCR) [1] | Zeb1 expression (qPCR) [1] | c-Myc expression (qPCR) [1] | also measured |
| --- | --- | --- | --- | --- | --- |
| EGF: human recombinant EGF (Sigma E9644) | sufficient to restore | unaffected | restored | restored | c-myc upregulation in response to doses of EGF ([1]; HMLER-HR, 4 days, relative to D.M.): dose-dependent |
| C#Cc1cccc(Nc2ncnc3cc(OCCOC)c(OCCOC)cc23)c1 [erlotinib] |  |  |  |  | adverse effect reported for patients [2]: skin rash |
| insulin: insulin (Sigma 19278), medium supplement | not sufficient to restore | restored | remained significantly lower than the controls | remained significantly lower than the controls |  |
| CC(=O)Oc1ccccc1C(=O)O [aspirin, Aspirin] |  |  |  |  | incorporation of VEGFR2-positive cells into responding tumor sites ([3]; LBC instigating environment): completely inhibited; p-STAT3 in responding tumor site tissues ([3]; LBC instigating environment): negative; mice that developed responding tumors (incidence) ([3]; LBC instigators, vehicle control 90%): 20%; instigating LBC tumor growth [4]: did not significantly affect; increase in tumor cell CD24 expression above control BMCs from tumor-free mice [5]: ~90% |
